Data on 26 compounds can be found in patent publication US9833423B2 (KOREA RESEARCH INSTITUTE OF CHEMICAL TECHNOLOGY, priority 2011, dated 2017).

What is called melting point is the temperature, or range, at which the solid turns liquid. The EC50 is the concentration needed to bring the measured effect to its halfway point.

Values after ≈ are worked out from the molar mass of the structure shown. Like-named read-outs stand apart in the source and are kept apart here. A value given as a limit tells only on which side of the number the result lay.

For data set [1], the system named is 48 rhinovirus types and coxsackievirus A21, B3, enterovirus 70 and echovirus 11. The note with it: cited from earlier work.
Another data set can be described thus: in vitro. The conditions noted are these: human.
A further data set deals with Coxsackie-virus B3. Description: Cytopathic effect (CPE) inhibition assay. The data set is classed as cell-based, Coxsackievirus B3. The conditions noted are these: Enterovirus B, HeLa37, 48 h.
The subject of a further data set is Coxsackie-virus A24 (HG). Description: Cytopathic effect (CPE) inhibition assay. The data set is classed as cell-based, Coxsackievirus A24. The note with it: Enterovirus C, MRC5, 48 h; Table 3; MRC-5, 37° C., 2 days.
A further data set concerns Coxsackie-virus B1. Description: Cytopathic effect (CPE) inhibition assay. The data set is classed as cell-based, Coxsackievirus B1. The conditions noted are these: Enterovirus B, HeLa37, 48 h. On the technique in general: Protection from cytopathic effect is a common read-out in antiviral testing.
For data set [2] the following is noted: cited from earlier work.
The conditions of data set [3]: in vivo, cited from earlier work.
Data set [4] is described as follows: Cytotoxicity (CC50) in mock-infected cells, MTT assay, Experimental Example 1. The note with it: human. (Tetrazolium dyes change colour on reduction, which living cells bring about.)
The next data set relates to Entero-virus 70. Description: Cytopathic effect (CPE) inhibition assay. The data set is classed as cell-based, Enterovirus 70. The conditions noted are these: Enterovirus D, MRC5, 48 h; Table 3; MRC-5, 37° C., 2 days.
For a further data set, the system named is Polio-virus 3. Description: microbe, parasite or virus in culture. The format is cell-based, Poliovirus 3. The conditions noted are these: Enterovirus C, HeLa37, 48 h, read-out: Polio-virus 3 EC50.
For data set [5] the following is noted: in vivo; cited from earlier work.
The conditions of data set [6]: in vivo; cited from earlier work. This is another data set of the same source.
The mark [7] stands for this setting: Table 3, HeLa, 37° C., 2 days, read-out: EC50 Coxsackie-virus B3.
[8] abbreviates: Table 3, HeLa, 37° C., 2 days, read-out: EC50 Coxsackie-virus B1.
The mark [9] stands for this setting: read-out: Coxsackie-virus B3 EC50.
The mark [10] stands for this setting: read-out: Coxsackie-virus B1 EC50.
Where [11] appears, read: Table 4, HeLa, 37° C., 2 days, read-out: Coxsackie-virus B3 EC50.
[12] abbreviates: Table 4, HeLa, 37° C., 2 days, read-out: Coxsackie-virus B1 EC50.

Consider `CCOC(=O)/C=C/[C@H](C[C@@H]1CCNC1=O)NC(=O)[C@@H](CC(=O)[C@@H](NC(=O)c1cc(C)on1)C(C)C)Cc1ccc(F)cc1` [AG 7088], for which the “concentration range with an effect in the cell culture” value in data set [1] is “nanomolar concentration range”.

With `CC(C)c1ccc(C2(NC(=O)c3ccccc3)C(=O)c3ccccc3C2=O)c(OC(=O)c2ccccc2)c1` [Example 70, 2-(2-Benzamido-1,3-dioxo-2,3-dihydro-1H-inden-2-yl)-5-isopropylphenyl benzoate], the melting point lay within 138 to 140 °C. This compound had a CC50 in the data set “in vitro” (CC50) above 117 µg/mL. The EC50 in the data set with Coxsackie-virus B3 (setting [7]) is below 0.01 µg/mL. The same compound came in with an EC50 with Coxsackie-virus A24 (HG) below 1 µg/mL. Also, in the data set on Coxsackie-virus B1 (setting [8]), the EC50 is below 0.01 µg/mL.

Consider `CC(C)S(=O)(=O)n1c(N)nc2ccc(/C(=N/O)c3ccccc3)cc21` [Enviroxime], for which the “therapeutic effects in clinical studies” value in data set [2] (clinical studies) is listed as “insignificant or few therapeutic effects”. Besides, in data set [2] (in vivo), the “pharmacokinetics in clinical studies” value is given as “bad” and the “side effects in clinical studies” value was “unwanted side effects”.

For the compound `Cc1cc(CCCOc2c(C)cc(-c3noc(C(F)(F)F)n3)cc2C)on1` [Pleconaril], the oral bioavailability entry in data set [3] (po) is “very good”.

Regarding `CC(=O)NC1(c2ccc(C(C)C)cc2OC(=O)N(C)C)C(=O)c2cccc(N)c2C1=O` (stereo not shown) [Example 100, 2-(2-Acetamido-4-amino-1,3-dioxo-2,3-dihydro-1H-inden-2-yl)-5-isopropylphenyl dimethylcarbamate], the EC50 in the data set with Coxsackie-virus B3 (setting [9]) and in the data set on Coxsackie-virus B1 (setting [10]) was below 0.01 µg/mL throughout. The compound further gave a CC50 in data set [4] above 100 µg/mL.

Compound `CC(C)c1ccc(C2(OC(=O)N(C)C)C(=O)c3ccccc3C2=O)c(OC(=O)N(C)C)c1` [Example 31, Dimethyl-carbamic acid 2-(2-dimethylcarbamoyloxy-1,3-dioxo-indan-2-yl)-5-isopropyl-phenyl ester] had a melting point of 203 to 205 °C. Besides, in data set [4], the CC50 is above 100 µg/mL.

Turning to `CC(=O)Oc1cc(C)c(C)cc1C1(OC(C)=O)C(=O)c2ccccc2C1=O` [Example 2, 2-(2-Acetoxy-1,3-dioxo-2,3-dihydro-1H-inden-2-yl)-4,5-dimethylphenyl acetate], the melting point fell in the range of 206 to 207 °C. The same compound returned a CC50 in “in vitro” (CC50) above 100 µg/mL. In the data set on Entero-virus 70, this compound returned an EC50 below 1 µg/mL.

With `CCCCOC(=O)Oc1cc(C(C)C)ccc1C1(NC(C)=O)C(=O)c2cccc(N)c2C1=O` (stereo not shown) [Example 96, 2-(2-Acetamido-4-amino-1,3-dioxo-2,3-dihydro-1H-inden-2-yl)-5-isopropylphenyl butyl carbonate2-(2-acetamido-4-amino-1,3-dioxo-2,3-dihydro-1H-inden-2-yl)-5-isopropylphenyl butyl carbonate], the CC50 in “in vitro” (Picorna-virus CC50) worked out at 48.9 µg/mL (≈ 108 µM). In addition, the EC50 with Coxsackie-virus B3 (setting [11]) is below 0.01 µg/mL; with Polio-virus 3, 0.03 µg/mL (≈ 0.0663 µM); in the data set with Coxsackie-virus B1 (setting [12]) it was below 0.01 µg/mL.

In the case of `CNC(=O)Oc1cc(C(C)C)ccc1C1(NC(C)=O)C(=O)c2ccccc2C1=O` [Example 97, 2-(2-Acetamido-1,3-dioxo-2,3-dihydro-1H-inden-2-yl)-5-isopropylphenyl methylcarbamate], the EC50 with Coxsackie-virus B3 (setting [9]) and in the data set with Coxsackie-virus B1 (setting [10]) was below 0.01 µg/mL throughout. The CC50 in data set [4] came to 45.1 µg/mL (≈ 114 µM).

As for `Cc1cc(CCCCCOc2c(Cl)cc(C3=NCCO3)cc2Cl)on1` [WIN 54954], in [5], the side effects entry is reported as “skin rash”. Moreover, the metabolization and excretion entry in data set [6] was “rapid”.

On to `CCC(=O)C(CCCCCCOc1ccc(OC)cc1Cl)C(=O)CC` [arildone], for which the bioavailability result in data set [3] was “low”.

In “in vitro” (Picorna-virus CC50), `CCNC(=O)Oc1cc(C(C)C)ccc1C1(NC(C)=O)C(=O)c2cccc(N)c2C1=O` (stereo not shown) [Example 103, 2-(2-Acetamido-4-amino-1,3-dioxo-2,3-dihydro-1H-inden-2-yl)-5-isopropylphenyl ethylcarbamate] returned a CC50 of 26.3 µg/mL (≈ 62 µM). Moreover, the EC50 in the data set on Coxsackie-virus B3 (setting [11]) was below 0.01 µg/mL; in the data set on Polio-virus 3, 0.013 µg/mL (≈ 0.0307 µM); with Coxsackie-virus B1 (setting [12]), below 0.01 µg/mL.

Compound `COC(=O)NC1(c2ccc(C(C)C)cc2OC(=O)OC)C(=O)c2ccccc2C1=O` [Example 48, Methyl 2-(4-isopropyl-2(methoxycarbonyloxy)phenyl)-1,3-dioxo-2,3-dihydro-1H-inden-2-yl carbamate] returned a CC50 in the data set “in vitro” (CC50) of 46.7 µg/mL (≈ 114 µM). In addition, the half-maximal effective concentration (EC50) with Coxsackie-virus B3 (setting [7]) and with Coxsackie-virus B1 (setting [8]) was below 0.01 µg/mL each time.

Take `CCC(=O)NC1(c2ccc(C(C)C)cc2OC(=O)CC)C(=O)c2ccccc2C1=O` [Example 68, 2-(1,3-Dioxo-2-propionamido-2,3-dihydro-1H-inden-2-yl)-5-isopropylphenyl propionate]: the melting point was 173 to 175 °C. In addition, in “in vitro” (CC50), the CC50 turned out to be 66 µg/mL (≈ 162 µM). Further, the EC50 in the data set on Coxsackie-virus B3 (setting [7]) was below 0.01 µg/mL. For the same compound, in the data set with Coxsackie-virus A24 (HG), the EC50 is below 1 µg/mL. Further, in the data set with Coxsackie-virus B1 (setting [8]), the EC50 was below 0.01 µg/mL.

In the case of `CC(=O)Oc1cc(Cl)ccc1C1(OC(C)=O)C(=O)c2ccccc2C1=O` [Example 3, 2-(2-Acetoxy-1,3-dioxo-2,3-dihydro-1H-inden-2-yl)-5-chlorophenyl acetate], the melting point lay within 148 to 150 °C. The CC50 in “in vitro” (CC50) worked out at 50.7 µg/mL. Besides, the EC50 with Entero-virus 70 came out at 0.013 µg/mL.

In “in vitro” (Picorna-virus CC50), `CC(C)C(=O)Nc1cc(C(C)C)ccc1C1(O)C(=O)c2ccccc2C1=O` [Example 95, N-(2-(2-Hydroxy-1,3-dioxo-2,3-dihydro-1H-inden-2-yl)-5-isopropylphenyl)isobutyramide] yielded a CC50 of 27.4 µg/mL (≈ 75.1 µM). Besides, the EC50 in the data set on Coxsackie-virus B3 (setting [11]) and in the data set with Coxsackie-virus B1 (setting [12]) was below 0.01 µg/mL throughout.

Take `CCCC(=O)NC1(c2ccc(C(C)C)cc2OC(=O)CCC)C(=O)c2cccc(N)c2C1=O` (stereo not shown) [Example 85, 2-(4-Amino-2-butyramido-1,3-dioxo-2,3-dihydro-1H-inden-2-yl)-5-isopropylphenyl butyrate]: the CC50 in “in vitro” (Picorna-virus CC50) was found to be 45.9 µg/mL (≈ 102 µM). Further, the EC50 with Coxsackie-virus B3 (setting [11]) was below 0.03 µg/mL; with Polio-virus 3, 0.015 µg/mL (≈ 0.0333 µM); in the data set with Coxsackie-virus B1 (setting [12]), below 0.01 µg/mL.

Consider `CCCCC(=O)NC1(c2ccc(C(C)C)cc2OC(=O)C(C)(C)C)C(=O)c2ccccc2C1=O` [Example 80, 2,2-Dimethyl-propionic acid 2-(1,3-dioxo-2-pentanoylamino-indan-2-yl)-5-isopropyl-phenyl ester], for which the CC50 in the data set “in vitro” (Picorna-virus CC50) was above 100 µg/mL. Moreover, the EC50 with Coxsackie-virus B3 (setting [11]) and with Coxsackie-virus B1 (setting [12]) was below 0.01 µg/mL throughout.

Compound `COC(=O)Oc1cc(C(C)C)ccc1C1(NC(C)=O)C(=O)c2ccccc2C1=O` [Example 92, 2-(2-Acetamido-1,3-dioxo-2,3-dihydro-1H-inden-2-yl)-5-isopropylphenyl methyl carbonate] gave a CC50 in “in vitro” (Picorna-virus CC50) of 43.6 µg/mL (≈ 110 µM). Moreover, the EC50 in the data set with Coxsackie-virus B3 (setting [11]) and in the data set with Coxsackie-virus B1 (setting [12]) was below 0.01 µg/mL each time.

In the case of `CC(=O)NC1(c2ccc(C(C)C)cc2OC(=O)N(C)C)C(=O)c2ccccc2C1=O` [Example 98, Dimethyl-carbamic acid 2-(2-acetylamino-1,3-dioxo-indan-2-yl)-5-isopropyl-phenyl ester], the CC50 in data set [4] was above 100 µg/mL. Moreover, the EC50 with Coxsackie-virus B1 (setting [10]) worked out at 0.013 µg/mL (≈ 0.0318 µM).

As to `CC(=O)NC1(c2ccc(C(C)C)cc2OC(=O)Oc2ccccc2)C(=O)c2ccccc2C1=O` [Example 99, Carbonic acid 2-(2-acetylamino-1,3-dioxo-indan-2-yl)-5-isopropyl-phenyl ester phenyl ester], the CC50 in “in vitro” (Picorna-virus CC50) came to 38.1 µg/mL (≈ 83.2 µM). For the same compound, the EC50 in the data set with Coxsackie-virus B3 (setting [11]) and in the data set on Coxsackie-virus B1 (setting [12]) was below 0.01 µg/mL throughout.

Compound `CCc1ccc(C2(OC(C)=O)C(=O)c3ccccc3C2=O)c(OC(C)=O)c1` [Example 6, 2-(2-Acetoxy-1,3-dioxo-2,3-dihydro-1H-inden-2-yl)-5-ethylphenyl acetate] registered a melting point of 136 to 137 °C. This compound gave a CC50 in “in vitro” (CC50) of 23.5 µg/mL. For the same compound, in the data set on Coxsackie-virus B3 (setting [7]), the EC50 came to 0.035 µg/mL. The compound further yielded an EC50 in the data set on Entero-virus 70 below 0.01 µg/mL. Moreover, the EC50 with Coxsackie-virus B1 (setting [8]) was below 0.01 µg/mL.

In the case of `CCOC(=O)N(C(C)=O)C1(c2ccc(C(C)C)cc2O)C(=O)c2ccccc2C1=O` [Example 102, Ethyl acetyl(2-(2-hydroxy-4-isopropylphenyl)-1,3-dioxo-2,3-dihydro-1H-inden-2-yl)carbamate], the CC50 in “in vitro” (Picorna-virus CC50) came to 42.5 µg/mL (≈ 104 µM). Besides, the EC50 in the data set with Coxsackie-virus B3 (setting [11]) and in the data set on Coxsackie-virus B1 (setting [12]) was below 0.01 µg/mL in each case.

Regarding `Cc1cc(CCCCCCCOc2ccc(C3=NCCO3)cc2)on1` [disoxaril], the bioavailability result in [3] is “low”. For the same compound, in [6], the metabolization and excretion result is on record as “rapid”.

Compound `CCCCCC(=O)NC1(c2ccc(C(C)C)cc2OC(=O)CCCCC)C(=O)c2cccc(N)c2C1=O` (stereo not shown) [Example 82, 2-(4-Amino-2-hexanamido-1,3-dioxo-2,3-dihydro-1H-inden-2-yl)-5-isopropylphenyl hexanoate] gave a CC50 in “in vitro” (Picorna-virus CC50) above 100 µg/mL. Also, the results for the EC50 with Coxsackie-virus B3 (setting [11]), in the data set with Polio-virus 3 and in the data set on Coxsackie-virus B1 (setting [12]) were below 0.02 µg/mL, 0.015 µg/mL (≈ 0.0296 µM) and below 0.01 µg/mL, respectively.

Take `CCCCC(=O)NC1(c2ccc(C(C)C)cc2OC(=O)CCCC)C(=O)c2cccc(N)c2C1=O` (stereo not shown) [Example 81, 2-(4-amino-1,3-dioxo-2-pentanamido-2,3-dihydro-1H-inden-2-yl)-5-isopropylphenyl pentanoate]: in “in vitro” (Picorna-virus CC50), the CC50 stood at 41.3 µg/mL (≈ 86.2 µM). Besides, the EC50 with Coxsackie-virus B3 (setting [11]) is below 0.01 µg/mL; with Polio-virus 3, 0.012 µg/mL (≈ 0.0251 µM); with Coxsackie-virus B1 (setting [12]) it was below 0.01 µg/mL.
